The source of these data is article PMC12568301 (Veterinary Sciences, 2025).

Entries after “also recorded” stand apart in the source; their conditions may differ. Read-outs that look alike come from different tables or passages of the source. A value given as a limit tells only on which side of the number the result lay.

Data set [1] relates to FMDV serotype A (A/TAI/NP05/2017; NP05). It counts as cell-based, Foot-and-Mouth Disease Virus.
The target of the next data set is FMDV 3C^pro (Foot-and-mouth disease virus serotype O, UniProt P03305). It is filed as cell-based.
FMDV 3C^pro, sequence (P03305 1650-1862 limits assumed): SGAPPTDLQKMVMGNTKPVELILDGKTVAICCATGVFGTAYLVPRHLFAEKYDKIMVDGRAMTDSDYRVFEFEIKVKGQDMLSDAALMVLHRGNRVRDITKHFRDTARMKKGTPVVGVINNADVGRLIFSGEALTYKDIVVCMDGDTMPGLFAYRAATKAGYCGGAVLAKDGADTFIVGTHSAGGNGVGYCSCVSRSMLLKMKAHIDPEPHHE
A short description of a further data set: in vitro. To be noted: hamster.
Data set [2] deals with FMDV serotype A (NP05). In words: microbe, parasite or virus in culture. It counts as cell-based, Foot-and-Mouth Disease Virus. As to conditions: for EC50: Foot-and-mouth disease virus, BHK-21, read-out: Antiviral Activity EC50, Normalized Delta Ct (RT-qPCR). On the technique in general: Real-time PCR tracks product formation cycle by cycle.
The test system of data set [3] is FMDV serotype A (NP05). In words: microbe, parasite or virus in culture. It is filed as cell-based, Foot-and-Mouth Disease Virus. To be noted: for EC50: BHK-21, 22 h, read-out: Antiviral Activity EC50, Viral Copy Number (RT-qPCR).
Another data set has as its system BHK-21 cells. To be noted: for Cytotoxicity CC10 (maximum non-toxic concentration): hamster.
The next data set has as its target FMDV 3D^pol (Foot-and-mouth disease virus serotype O, UniProt P03305). In words: cell-based. It is filed as cell-based.
The test system of data set [4] is FMDV serotype A (A/TAI/NP05/2017; NP05). Put plainly: in vitro. As to conditions: hamster.
Data set [5] shares this test system. Put plainly: microbe, parasite or virus in culture. To be noted: Foot-and-mouth disease virus.
Data set [6] has as its system influenza virus neuraminidase. As to conditions: 5 µg/mL; cited from earlier work.
A further data set has as its system influenza A (H1N1) virus. As to conditions: cited from earlier work.
The mark [7] stands for this setting: BHK-21, read-out: Antiviral Activity EC50, FMDV Specific-Positive Cell (IPMA).

FMDV 3D^pol, sequence (P03305 1863-2332 limits assumed): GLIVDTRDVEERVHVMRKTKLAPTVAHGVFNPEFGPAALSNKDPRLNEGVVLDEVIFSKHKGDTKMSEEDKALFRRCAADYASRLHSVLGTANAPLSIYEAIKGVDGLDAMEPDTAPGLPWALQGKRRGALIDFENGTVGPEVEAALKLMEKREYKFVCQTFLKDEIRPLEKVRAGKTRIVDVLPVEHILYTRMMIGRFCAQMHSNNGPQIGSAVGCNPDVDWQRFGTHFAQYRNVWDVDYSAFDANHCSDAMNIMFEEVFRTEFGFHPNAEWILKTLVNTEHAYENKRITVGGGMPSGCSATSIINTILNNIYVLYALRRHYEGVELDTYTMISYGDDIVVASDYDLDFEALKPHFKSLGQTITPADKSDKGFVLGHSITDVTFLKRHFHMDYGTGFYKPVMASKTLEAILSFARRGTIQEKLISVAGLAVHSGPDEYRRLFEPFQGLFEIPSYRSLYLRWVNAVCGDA

Regarding `c1cc2c(cc1[C@H]1OC[C@H]3[C@@H]1CO[C@H]3c1ccc3c(c1)OCO3)OCO2` [(-)-Asarinin], the “Inhibition of FMDV infection / cytopathic effect, post-viral entry” value in data set [1] is “dose-dependent inhibition”. Besides, at FMDV 3C^pro, the “Effect on FMDV 3C^pro activity” value is given as “Neither sesamin nor (-)-asarinin inhibited FMDV 3C^pro; also recorded: no activity observed”. Also, in the data set “in vitro”, the CC50 stood at 90.4 ± 1.95 µM. In the data set with FMDV serotype A (NP05) [2], the “Inhibition of negative-strand RNA production” value is over 60%; the “Selective index SI, Normalized Delta Ct (RT-qPCR)” value was 31.67 ± 1.50 (30.47 to 32.87) SI = 2.86; the EC50 worked out at 31.7 µM. The “Selective index SI, Viral Copy Number (RT-qPCR)” value with FMDV serotype A (NP05) [3] is recorded as 36.70 ± 1.57 (36.06 to 37.34) SI = 2.46. Further, in the data set with FMDV serotype A (NP05) [3] (Foot-and-mouth disease virus), the EC50 worked out at 36.7 µM. Also, the inhibition at 40 µM with FMDV serotype A (NP05) [3] (Foot-and-mouth disease virus, BHK-21, read-out: Inhibition of FMDV viral copy number) worked out at 50%. Besides, the “Toxicity to BHK-21 cells in words” value in the data set on BHK-21 cells (at 100 µM) is listed as “moderate cytotoxicity”. Also, in the data set on BHK-21 cells, the “Cytotoxicity CC10 (maximum non-toxic concentration)” value turned out to be 65.05 ± 1.81 µM. Also, at FMDV 3D^pol, the “Fold greater potency compared to sesamin (IC50, minigenome)” value is “approximately 7 fold”; the IC50 came to 10.4 µM; the “Selective index SI, GFP Signal (FMDV Minigenome)” value was 10.37 ± 1.01 (9.56 to 11.18) SI = 8.72. Besides, in [4], the selectivity ratio is 5.99. Further, the EC50 in [5] (setting [7]) was found to be 15.1 µM. The EC50 in data set [5] (BHK-21, read-out: Effect against FMDV infection (range of EC50 values)) is 15.1 to 36.7 µM.

Consider `COc1cc(C2OCC3C(c4cc(OC)c(OC5OC(CO)C(O)C(O)C5O)c(OC)c4)OCC23)cc(OC)c1OC1OC(CO)C(O)C(O)C1O` (stereo not shown) [Eleutheroside E], for which, in data set [1], the “Inhibition of FMDV infection / cytopathic effect, post-viral entry” value is listed as “no potent effect”. This molecule also yielded a CC50 in the data set “in vitro” of 20.8 ± 1.31 µM. In the data set on BHK-21 cells, the “Toxicity to BHK-21 cells in words” value is reported as “moderate cytotoxicity” and the “Cytotoxicity CC10 (maximum non-toxic concentration)” value came to 11.39 ± 1.05 µM.

Consider `OC12COC(c3ccc4c(c3)OCO4)C1COC2c1ccc2c(c1)OCO2` (stereo not shown) [Paulownin], for which the CC50 in the data set “in vitro” is 860.6 ± 2.93 µM. In the data set with BHK-21 cells, the “Toxicity to BHK-21 cells in words” value is listed as “mild toxicity” and the “Cytotoxicity CC10 (maximum non-toxic concentration)” value stood at 147.00 ± 2.167 µM.

The molecule `COc1cc([C@@H]2c3cc4c(cc3[C@H](O)[C@H]3COC(=O)[C@@H]23)OCO4)cc(OC)c1OC` [Picropodophyllotoxin] came in with a CC50 in “in vitro” of 136 ± 2.13 µM. For the same molecule, in the data set on BHK-21 cells, the “Toxicity to BHK-21 cells in words” value is “moderate cytotoxicity” and the “Cytotoxicity CC10 (maximum non-toxic concentration)” value was 50.07 ± 1.70 µM.

In the data set “in vitro”, `NC(=O)c1ncn([C@@H]2O[C@H](CO)[C@@H](O)[C@H]2O)n1` [Ribavirin, reference compound] showed a CC50 of at least 500 µM. In addition, the values for the EC50 (with FMDV serotype A (NP05) [2]; in the data set with FMDV serotype A (NP05) [3] (Foot-and-mouth disease virus); in data set [5] (setting [7])) were 29.4 µM, 32.8 µM and 39.6 µM, respectively.

Consider `c1cc2c(cc1[C@H]1OC[C@H]3[C@@H]1CO[C@@H]3c1ccc3c(c1)OCO3)OCO2` [Sesamin], for which the “Inhibition of FMDV infection / cytopathic effect, post-viral entry” value in [1] was “dose-dependent inhibition”. The “Effect on FMDV 3C^pro activity” value on FMDV 3C^pro is reported as “Neither sesamin nor (-)-asarinin inhibited FMDV 3C^pro”. Moreover, in the data set “in vitro”, the CC50 was 604.6 ± 2.78 µM. Moreover, the “Inhibition of influenza virus neuraminidase” value in [6] was “inhibited influenza virus neuraminidase”. Moreover, in the data set with FMDV serotype A (NP05) [2], the “Selective index SI, Normalized Delta Ct (RT-qPCR)” value was 60.94 ± 1.79 (60.21 to 61.67) SI = 9.92 and the EC50 came to 60.9 µM. Moreover, in the data set with influenza A (H1N1) virus, the Cytotoxicity result was “without exhibiting cytotoxicity” and the “Inhibition of influenza A (H1N1) virus (reduced inflammatory cytokines)” value was “inhibit influenza A (H1N1) virus”. Moreover, in the data set on FMDV serotype A (NP05) [3], the “Inhibition of FMDV viral copy number in words” value is “markedly significant inhibition” and the “Selective index SI, Viral Copy Number (RT-qPCR)” value is on record as 82.43 ± 1.92 (81.65 to 83.21) SI = 7.33. Further, the EC50 with FMDV serotype A (NP05) [3] (Foot-and-mouth disease virus) is 82.4 µM. Further, in the data set with BHK-21 cells (at 100 µM), the “Toxicity to BHK-21 cells in words” value is “mild toxicity”. Further, the “Cytotoxicity CC10 (maximum non-toxic concentration)” value in the data set with BHK-21 cells amounted to 254.20 ± 2.40 µM. Besides, on FMDV 3D^pol, the IC50 was found to be 74.9 µM and the “Selective index SI, GFP Signal (FMDV Minigenome)” value is on record as 74.89 ± 1.87 (73.39 to 76.39) SI = 8.07. Besides, in data set [4], the selectivity ratio is 11.4. Also, in data set [5] (setting [7]), the EC50 amounted to 53 µM.

With Gomisin A, the “Inhibition of FMDV infection / cytopathic effect, post-viral entry” value in data set [1] is on record as “no potent effect”.

As usually defined, the inhibition is the percentage by which the read-out fell short of the control. By IC50 is commonly meant the concentration that gives 50% inhibition.
